The structures appear in SMILES notation.

In the assay the target is T1, CCR1 (Homo sapiens, UniProt P32246).
T1 construct: host or cells: Non-adherent cells
T1 sequence (P32246 1-355): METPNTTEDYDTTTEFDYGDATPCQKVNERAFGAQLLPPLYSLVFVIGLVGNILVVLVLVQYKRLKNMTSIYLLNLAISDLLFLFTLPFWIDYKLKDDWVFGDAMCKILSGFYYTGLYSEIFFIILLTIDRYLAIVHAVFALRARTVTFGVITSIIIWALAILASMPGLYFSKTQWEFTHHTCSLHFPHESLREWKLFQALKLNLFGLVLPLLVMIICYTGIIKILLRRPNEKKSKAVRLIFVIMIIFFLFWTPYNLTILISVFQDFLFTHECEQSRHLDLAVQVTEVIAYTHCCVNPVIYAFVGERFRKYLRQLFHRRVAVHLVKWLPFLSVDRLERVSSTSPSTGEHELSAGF
Description: functional cellular assay measuring calcium flux in CCR1 transfected cells (block of CCR1/MIP-1α interaction). It is filed as cell-based. The conditions noted are these: cells stably expressing recombinant CCR1 and G-alpha-16, MIP-1alpha added at EC80. On the procedure: Compounds are assessed for the ability to block the interaction of CCR1 and MIP-1α in a functional cellular assay measuring calcium flux in CCR1 transfected cells.
Non-adherent cells purchased from Chemicon Corporation (HTS005C), stably expressing recombinant CCR1 and G-alpha-16 are grown in RPMI 1640 medium (Mediatech 10-080-CM) supplemented with 10% FBS, 0.4 mg/mL Geneticin and penicillin/streptomycin. On the day of the assay, the cells are loaded with Calcium 4 dye (Molecular Devices R7448) with Probenecid (Invitrogen P346400) at 8E5 cells/mL for 1 hour at room temperature. After 1 hour, they are seeded in a 384-well tissue culture-treated plate at a density of 20,000 cells/well. Appropriately diluted test compound is added to the well to achieve a top concentration of 3,000 nM (diluted 4-fold with 10 doses total). The final concentration of DMSO is 1%. The buffer is HBSS (Invitrogen 14025) with 20 mM HEPES at pH 7.4. The cells incubate 30 minutes at 37 C and then 30 minutes at room temperature. The plates are transferred to the […] FDSS6000 where MIP-1alpha in 1% BSA is added at the EC80 final concentration. All plates must be read within 4 hours of the start of dye-loading. Wells +/− MIP-1alpha containing diluted DMSO instead of compound serve as the controls. Data are analyzed using Activity Base software.
A general note: Calcium flux is commonly read through the fluorescence of an indicator in the cells.
A word on the IC50: it is the concentration needed to halve the response being measured. Turning to `CS(=O)(=O)c1cc(C2(NC(=O)c3cc(Br)cc4c3cnn4-c3ccc(F)cc3)CC2)ccn1` [6-Bromo-1-(4-fluoro-phenyl)-1H-indazole-4-carboxylic acid [1-(2-methanesulfonyl-pyridin-4-yl)-cyclopropyl]-amide], the IC50 came out at 2 nM. The value for `CS(=O)(=O)c1cc(C2(NC(=O)c3cc(C#N)cc4c3cnn4-c3ccc(F)cc3)CC2)ccn1` [6-Cyano-1-(4-fluoro-phenyl)-1H-indazole-4-carboxylic acid [1-(2-methanesulfonyl-pyridin-4-yl)-cyclopropyl]-amide] was 0.1 nM. As for `COC(=O)[C@H](C)NC(=O)c1cccc(C2(NC(=O)c3cncc4c3cnn4-c3ccc(F)cc3)CC2)c1` [(S)-2-[3-(1-{[1-(4-Fluoro-phenyl)-1H-pyrazolo[3,4-c]pyridine-4-carbonyl]-amino}-cyclopropyl)-benzoylamino]-propionic acid methyl ester], the IC50 was 80 nM.

Take `CC(C)(C)OC(=O)NCc1ccnc(C2(NC(=O)c3cncc4c3cnn4-c3ccc(F)cc3)CC2)c1` [[2-(1-{[1-(4-Fluoro-phenyl)-1H-pyrazolo[3,4-c]pyridine-4-carbonyl]-amino}-cyclopropyl)-pyridin-4-ylmethyl]-carbamic acid tert-butyl ester]: the IC50 is 285 nM. The value for `COC(=O)CNC(=O)c1cccc(C2(NC(=O)c3cncc4c3cnn4-c3ccc(F)cc3)CC2)c1` [[3-(1-{[1-(4-Fluoro-phenyl)-1H-pyrazolo[3,4-c]pyridine-4-carbonyl]-amino}-cyclopropyl)-benzoylamino]-acetic acid methyl ester] was 5 nM; that for `CC(C)(C)OC(=O)NCc1ccc(C2(NC(=O)c3cncc4c3cnn4-c3ccc(F)cc3)CC2)nc1` [[6-(1-{[1-(4-Fluoro-phenyl)-1H-pyrazolo[3,4-c]pyridine-4-carbonyl]-amino}-cyclopropyl)-pyridin-3-ylmethyl]-carbamic acid tert-butyl ester] was 81 nM.

(Values after US9056858B2, “Indazole and pyrazolopyridine compounds as CCR1 receptor antagonists” (Boehringer Ingelheim International GmbH, priority 2009, dated 2015).)
